Measurements from patent US12528812B2 (Genentech, Inc., priority 2020, dated 2026).
pIC50, pKi: −log10 of the molar value.

Assays:
[1] = target: T1, recombinant human JAK1 kinase domain protein (Residues 854-1154) (Homo sapiens, UniProt P23458); test: JAK1 biochemical assay (LabChip mobility shift, Ki); conditions: read-out: Biochem JAK1 Ki
T1 construct: human JAK1 kinase domain protein (Residues 854-1154); purchased Proteros Biostructures GmbH (Martinsried, Germany); host or cells: insect cells
T1 sequence (P23458 854-1154): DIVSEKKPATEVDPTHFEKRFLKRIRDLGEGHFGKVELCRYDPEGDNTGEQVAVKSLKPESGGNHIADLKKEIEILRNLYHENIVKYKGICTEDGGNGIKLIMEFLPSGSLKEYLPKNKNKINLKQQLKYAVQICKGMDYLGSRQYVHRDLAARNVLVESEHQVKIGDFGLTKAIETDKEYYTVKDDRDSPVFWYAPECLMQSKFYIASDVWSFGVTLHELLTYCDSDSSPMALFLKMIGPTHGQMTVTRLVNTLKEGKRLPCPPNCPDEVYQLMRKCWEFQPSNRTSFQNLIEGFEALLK

[2] = test system: IL-13-stimulated STAT6 phosphorylation in human lung bronchial epithelial BEAS-2B cell line; test: P-STAT6 BEAS-2B + IL-13 cell assay; assay type: cell-based; conditions: Homo sapiens, BEAS-2B, BEAS2B cells, IL13 stimulation; read-out: Cellular JAK1 PSTAT6 BEAS2B + IL13
Outline: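 BEAS-2B cells grown 48 h at 37 °C, pre-treated 1 h with compound (10-point 1:2 dilution curve), then stimulated 15 min with human recombinant IL-13 (250 ng/mL stock). Lysate P-STAT6 (Tyr641) read by MSD sandwich ELISA with total-STAT6 capture; IC50 from four-parameter logistic fit of control-normalised data.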

[3] = target: Recombinant human JAK2 kinase domain protein (Residues 812-1132) (Homo sapiens, UniProt O60674); test: JAK2 biochemical assay (LabChip mobility shift, Ki); conditions: Biochem JAK2 Ki
Chain of Recombinant human JAK2 kinase domain protein (Residues 812-1132) (O60674 812-1132): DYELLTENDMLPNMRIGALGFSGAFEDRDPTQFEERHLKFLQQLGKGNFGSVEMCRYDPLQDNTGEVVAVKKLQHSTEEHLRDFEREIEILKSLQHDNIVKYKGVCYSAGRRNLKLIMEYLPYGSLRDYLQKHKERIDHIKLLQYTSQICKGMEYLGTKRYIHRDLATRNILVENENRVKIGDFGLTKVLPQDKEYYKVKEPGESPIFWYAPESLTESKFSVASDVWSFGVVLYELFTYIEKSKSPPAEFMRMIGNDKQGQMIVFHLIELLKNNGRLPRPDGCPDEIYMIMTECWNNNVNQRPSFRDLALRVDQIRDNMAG

Structure (SMILES)	pKi [1]	pKi [3]	pIC50 [2]
Cn1cc(NC(=O)c2cnn3cccnc23)c(-c2cc(Oc3cccc(C4CNC4)c3)ccc2OC(F)F)n1 [Example 87, N-[3-[5-[3-(azetidin-3-yl)phenoxy]-2-(difluoromethoxy)phenyl]-1-methyl-pyrazol-4-yl]pyrazolo[1,5-a]pyrimidine-3-carboxamide]	9.59	9.39	7.44
CN(C)C(=O)c1ccc(Oc2ccc(OC(F)F)c(-c3nn(C)cc3NC(=O)c3cnn4cccnc34)c2)cc1 [Example 88, N-[3-[2-(difluoromethoxy)-5-[4-(dimethylcarbamoyl)phenoxy]phenyl]-1-methyl-pyrazol-4-yl]pyrazolo[1,5-a]pyrimidine-3-carboxamide]	9.51	9.62	7.82
CN1CCN(C(=O)Cn2cc(Oc3ccc(OC(F)F)c(-c4nn(C)cc4NC(=O)c4cnn5cccnc45)c3)cn2)CC1 [Example 90, N-[3-[2-(difluoromethoxy)-5-[1-[2-(4-methylpiperazin-1-yl)-2-oxo-ethyl]pyrazol-4-yl]oxy-phenyl]-1-methyl-pyrazol-4-yl]pyrazolo[1,5-a]pyrimidine-3-carboxamide]	9.23	9.51	7.28
Cn1cc(NC(=O)c2cnn3cccnc23)c(-c2cc(Oc3cc(CNCCO)ccc3F)ccc2OC(F)F)n1 [Example 91, N-[3-[2-(difluoromethoxy)-5-[2-fluoro-5-[(2-hydroxyethylamino)methyl]phenoxy]phenyl]-1-methyl-pyrazol-4-yl]pyrazolo[1,5-a]pyrimidine-3-carboxamide]	9.49	9.40	7.77
CN(CCN1CCOCC1)C(=O)c1cccc(Oc2ccc(OC(F)F)c(-c3nn(C)cc3NC(=O)c3cnn4cccnc34)c2)c1 [Example 92, N-[3-[2-(difluoromethoxy)-5-[3-[methyl(2-morpholinoethyl)carbamoyl]phenoxy]phenyl]-1-methyl-pyrazol-4-yl]pyrazolo[1,5-a]pyrimidine-3-carboxamide]	8.96	9.17	7.25
Cn1cc(NC(=O)c2cnn3cccnc23)c(-c2cc(Oc3cc(F)cc(C4(O)CNC4)c3)ccc2OC(F)F)n1 [Example 95, N-[3-[2-(difluoromethoxy)-5-[3-fluoro-5-(3-hydroxyazetidin-3-yl)phenoxy]phenyl]-1-methyl-pyrazol-4-yl]pyrazolo[1,5-a]pyrimidine-3-carboxamide]	9.77	9.64	6.96
CN1CC(O)(c2cccc(Oc3ccc(OC(F)F)c(-c4nn(CCO)cc4NC(=O)c4cnn5cccnc45)c3)c2)C1 [Example 97, N-[3-[2-(difluoromethoxy)-5[3-(3-hydroxy-1-methyl-azetidin-3-yl)phenoxy]phenyl]-1-(2-hydroxyethyl)pyrazol-4-yl]pyrazolo[1,5-a]pyrimidine-3-carboxamide]	9.07	9.22	6.52
CN1CC(O)(c2cccc(Oc3ccc(OC(F)F)c(-c4nn(C5CCOCC5)cc4NC(=O)c4cnn5cccnc45)c3)c2)C1 [Example 98, N-[3-[2-(difluoromethoxy)-5-[3-(3-hydroxy-l-methyl-azetidin-3-yl)phenoxy]phenyl]-1-tetrahydropyran-4-yl-pyrazol-4-yl]pyrazolo[1,5-a]pyrimidine-3-carboxamide]	9.06	8.55	7.21
Cn1cc(NC(=O)c2cnn3cccnc23)c(-c2cc(Oc3cc(Cl)cc(C4(O)CNC4)c3)ccc2OC(F)F)n1 [Example 99, N-[3-[5-[3-chloro-5-(3-hydroxyazetidin-3-yl)phenoxy]-2-(difluoromethoxy)phenyl]-1-methyl-pyrazol-4-yl]pyrazolo[1,5-a]pyrimidine-3-carboxamide]	9.72	9.51	7.11
CN1CC(O)(c2cccc(Oc3ccc(OC(F)F)c(-c4nn(C5COC5)cc4NC(=O)c4cnn5cccnc45)c3)c2)C1 [Example 100, N-[3-[2-(difluoromethoxy)-5-[3-(3-hydroxy-1-methyl-azetidin-3-yl)phenoxy]phenyl]-1-(oxetan-3-yl)pyrazol-4-yl]pyrazolo[1,5-a]pyrimidine-3-carboxamide]	9.40	9.34	7.34

Further lines, with some results ahead:

pKi [1]	pKi [3]	Structure (SMILES)	pIC50 [2]
9.70	9.64	Cc1cc(Oc2ccc(OC(F)F)c(-c3nn(C)cc3NC(=O)c3cnn4cccnc34)c2)cc(C2(O)CNC2)c1 [Example 101, N-[3-[2-(difluoromethoxy)-5-[3-(3-hydroxyazetidin-3-yl)-5-methyl-phenoxy]phenyl]-1-methyl-pyrazol-4-yl]pyrazolo[1,5-a]pyrimidine-3-carboxamide]	6.74
9.36	9.37	Cc1cc(Oc2ccc(OC(F)F)c(-c3nn(C)cc3NC(=O)c3cnn4cccnc34)c2)cc(C2(O)CN(C)C2)c1 [Example 102, N-[3-[2-(difluoromethoxy)-5-[3-(3-hydroxy-1-methyl-azetidin-3-yl)-5-methyl-phenoxy]phenyl]-1-methyl-pyrazol-4-yl]pyrazolo[1,5-a]pyrimidine-3-carboxamide]	7.62
9.32	9.27	Cn1cc(NC(=O)c2cnn3cccnc23)c(-c2cc(Oc3ccc(F)c(C4(O)CNC4)c3)ccc2OC(F)F)n1 [Example 103, N-[3-[2-(difluoromethoxy)-5-[4-fluoro-3-(3-hydroxyazetidin-3-yl)phenoxy]phenyl]-1-methyl-pyrazol-4-yl]pyrazolo[1,5-a]pyrimidine-3-carboxamide]	6.59
9.14	9.12	CN1CC(O)(c2cc(Oc3ccc(OC(F)F)c(-c4nn(C)cc4NC(=O)c4cnn5cccnc45)c3)ccc2F)C1 [Example 104, N-[3-[2-(difluoromethoxy)-5-[4-fluoro-3-(3-hydroxy-1-methyl-azetidin-3-yl)phenoxy]phenyl]-1-methyl-pyrazol-4-yl]pyrazolo[1,5-a]pyrimidine-3-carboxamide]	7.35
9.31	9.37	Cn1cc(NC(=O)c2cnn3cccnc23)c(-c2cc(Oc3cc(C(F)(F)F)cc(C4(O)CNC4)c3)ccc2OC(F)F)n1 [Example 105, N-[3-[2-(difluoromethoxy)-5-[3-(3-hydroxyazetidin-3-yl)-5-(trifluoromethyl)phenoxy]phenyl]-1-methyl-pyrazol-4-yl]pyrazolo[1,5-a]pyrimidine-3-carboxamide]	7.09
8.80	8.77	CN1CC(O)(c2cc(Oc3ccc(OC(F)F)c(-c4nn(C)cc4NC(=O)c4cnn5cccnc45)c3)cc(C(F)(F)F)c2)C1 [Example 106, N-[3-[2-(difluoromethoxy)-5-[3-(3-hydroxy-1-methyl-azetidin-3-yl)-5-(trifluoromethyl)phenoxy]phenyl]-1-methyl-pyrazol-4-yl]pyrazolo[1,5-a]pyrimidine-3-carboxamide]	7.13
9.37	9.31	CCn1cc(NC(=O)c2cnn3cccnc23)c(-c2cc(Oc3cc(F)cc(C4(O)CN(C)C4)c3)ccc2OC(F)F)n1 [Example 107, N-[3-[2-(difluoromethoxy)-5-[3-fluoro-5-(3-hydroxy-1-methyl-azetidin-3-yl)phenoxy]phenyl]-1-ethyl-pyrazol-4-yl]pyrazolo[1,5-a]pyrimidine-3-carboxamide]	7.43
9.16	9.14	CCn1cc(NC(=O)c2cnn3cccnc23)c(-c2cc(Oc3cccc(C4(O)CN(C)C4)c3)ccc2OC(F)F)n1 [Example 108, N-[3-[2-(difluoromethoxy)-5-[3-(3-hydroxy-l-methyl-azetidin-3-yl)phenoxy]phenyl]-1-ethyl-pyrazol-4-yl]pyrazolo[1,5-a]pyrimidine-3-carboxamide]	7.22
9.06	9.24	Cn1cc(NC(=O)c2cnn3cccnc23)c(-c2cc(Oc3cc(C4CC4)cc(C4(O)CNC4)c3)ccc2OC(F)F)n1 [Example 109, N-[3-[5-[3-cyclopropyl-5-(3-hydroxyazetidin-3-yl)phenoxy]-2-(difluoromethoxy)phenyl]-1-methyl-pyrazol-4-yl]pyrazolo[1,5-a]pyrimidine-3-carboxamide]	6.60
9.16	9.44	CN1CC(O)(c2cc(Oc3ccc(OC(F)F)c(-c4nn(C)cc4NC(=O)c4cnn5cccnc45)c3)cc(C3CC3)c2)C1 [Example 110, N-[3-[5-[3-cyclopropyl-5-(3-hydroxy-l-methyl-azetidin-3-yl)phenoxy]-2-(difluoromethoxy)phenyl]-1-methyl-pyrazol-4-yl]pyrazolo[1,5-a]pyrimidine-3-carboxamide]	7.52
9.42	9.25	CCn1cc(NC(=O)c2cnn3cccnc23)c(-c2cc(Oc3cc(F)cc(C4(O)CNC4)c3)ccc2OC(F)F)n1 [Example 111, N-[3-[2-(difluoromethoxy)-5-[3-fluoro-5-[3-hydroxyazetidin-3-yl)phenoxy]phenyl]-1-ethyl-pyrazol-4-yl]pyrazolo[1,5-a]pyrimidine-3-carboxamide]	6.57
9.42	9.34	CCn1cc(NC(=O)c2cnn3cccnc23)c(-c2cc(Oc3cccc(C4(O)CNC4)c3)ccc2OC(F)F)n1 [Example 112, N-[3-[2-(difluoromethoxy)-5-[3-(3-hydroxyazetidin-3-yl)phenoxy]phenyl]-1-ethyl-pyrazol-4-yl]pyrazolo[1,5-a]pyrimidine-3-carboxamide]	6.96
